Test results published in PubChem BioAssay AID1963825 (Molecular Pharmacology Branch, DTP, NCI, 2024).
Values belong to the molecule of their own block, whether it stands above or below them.

Assay: Anticancer human tumor 997537-175-T-J1-PDC patient-derived colon adenocarcinoma cell line growth inhibition [POLQ]
Details: 997537-175-T-J1-PDC complex spheroid viability, combination with POLQ inhibitors; for viability, T/C: stronger effect = lower value
Method: Multicellular complex tumor spheroid response to Polymerase (POL) inhibitors (novobiocin, ART-558, RP6685) in combination with a variety of drugs and investigational agents in selected tumor cell lines
The POL inhibitors (novobiocin, ART-558, and RP6685) were evaluated both individually and in combination with standard of care and investigational anticancer small molecules within a complex spheroid model of solid tumors. . Complex spheroids include a stromal component modeled by human endothelial cells (HUVEC) and fibroblasts modeled by human mesenchymal stem cells (MSCs). The concentration ranges selected for each drug and investigational agent were based upon clinically achievable concentrations if the clinical Cmax of the agent was known.
Compounds. The drugs and investigational agents: novobiocin (NSC847541), ART-558 (NSC835418), RP-6685 (NSC848927), peposertib (NSC802822), ceralasertib (NSC780249), elimusertib (NSC800525), camonsertib (NSC841442), AZD-1390 (NSC803789), olaparib (NSC753686), talazoparib (NSC767125), rucaparib (NSC756644), sotorasib (NSC818433), MRTX-1133 (NSC836407), SN-38 (NSC673596), topotecan (NSC609699), epotoside (NSC141540), doxorubicin (NSC123127), gemcitabine (NSC613327), 5-fluorouracil (NSC19893), paclitaxel (NSC125973), vemurafenib (NSC761431), MSA-2 (NSC828583), SN-011 (NSC837082), adavosertib (NSC754352), prexasertib (NSC758257), carboplatin (NSC241240) and oxaliplatin (NSC266046), were obtained from the National Cancer Institute (NCI) Developmental Therapeutics Program Chemical Repository (21). The FDA-approved anticancer drug set is available from the Developmental Therapeutics Program at https://dtp.cancer.gov/organization/dscb/obtaining/. […] The stock solutions were prepared in dimethyl sulfoxide (DMSO, Sigma-Aldrich, St. Louis, MO, cat. D2650), except for the platinum compounds which were prepared in saline (Quality Biological, Gaithersburg, MD, cat. 114-055-101), at 800-fold the tested concentration and stored at -70 degrees C prior to their use. All drugs and investigational agents were tested over a range starting from a high concentration at or near the clinical Cmax and decreasing in half-log increments. If the clinical Cmax for an agent had not been determined, the highest concentration tested was 10 microM, except for SN-38, which was tested at a high concentration of 1 microM.
Cell Culture. All cells were maintained in an incubator at 37 degrees C and 5% CO2 with 95% humidity. The PDC lines were cultured according to standard operating procedures established by the NCI PDMR (https://pdmr.cancer.gov). Table 3 of the manuscript, lists the cell lines along with the number of the three cell types plated to form the mct-spheroids and media for tumor cell growth. After thawing, all PDC lines, except 997537-175-T-J1-PDC and 415267-285-R-J2-PDC, were cultured in Matrigel-coated flasks prepared with a working solution of 1X Ham's F-12 nutrient mix, without supplementation (Thermo Fisher Scientific, cat. 11765054), 100 U/mL penicillin-streptomycin (Thermo Fisher Scientific, cat. 15140122), and 2.5% Matrigel (Corning Inc., Corning, NY, cat. 354248) for the first three passages. The two PDC lines 997537-175-T-J1-PDC and 415267-285-R-J2-PDC were cultured on uncoated flasks. The 857933-349-R-J2-PDC line was cultured in 6C/Colon 1B media containing advanced DMEM/F-12 (Thermo Fisher Scientific, cat. 12634028), 10 mM HEPES (Thermo Fisher Scientific, cat. 15630080), 1X GlutaMAX supplement (Thermo Fisher Scientific, cat. 35050061), 0.1 mg/mL primocin (InvivoGen, San Diego, CA, cat. ant-pm-2), 10% defined fetal bovine serum, heat inactivated (HyClone Laboratories Inc., Logan, UT, cat. SH30070.03HI), 50% L-WRN conditioned media (ATCC, cat. CRL-3276), 1.25 mM N-Acetyl-L-cysteine (Sigma-Aldrich, cat. A9165), 10 mM nicotinamide (Sigma-Aldrich, cat. N0636), 1X B-27 supplement (Thermo Fisher Scientific, cat. 17504044), 1X N-2 supplement (Thermo Fisher Scientific, cat. […]
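Note: luminescence signal used as a surrogate for viable cells; spheroids exposed to drugs for seven days before readout.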

IC50 (compound alone, run of 11/27/2023): > 10 µM | IC50 (compound alone, run of 12/05/2023): > 10 µM
SMILES: Cc1cccc(N(C)C(=O)C2C(O)CCN2c2nc(C)cc(C(F)(F)F)c2C#N)c1 (stereo not given)
viability, T/C (compound 0.0316 µM): 97.6% [middle of 13 runs] | viability, T/C (compound 0.1 µM): 98.6% [middle of 13 runs] | viability, T/C (compound 0.316 µM): 97.3% [middle of 13 runs] | viability, T/C (compound 1 µM): 101% [middle of 13 runs] | viability, T/C (compound 3.16 µM): 101% [middle of 13 runs] | viability, T/C (compound 10 µM): 96.9% [middle of 13 runs]

SMILES: CCc1cc2c(N3CCc4c(cc(Cn5ccnc5)cc4-c4cn(C)nc4C(F)(F)F)C3=O)ccnc2c(OC)n1 + COC1C(OC(N)=O)C(O)C(Oc2ccc3c(O)c(NC(=O)c4ccc(O)c(CC=C(C)C)c4)c(=O)oc3c2C)OC1(C)C
IC50 (curve of first compound, second compound 0.0316 µM): > 10 µM | IC50 (curve of first compound, second compound 0.1 µM): > 10 µM | IC50 (curve of first compound, second compound 0.316 µM): > 10 µM | IC50 (curve of first compound, second compound 1 µM): > 10 µM | IC50 (curve of first compound, second compound 3.16 µM): > 10 µM | IC50 (curve of first compound, second compound 10 µM): > 10 µM | viability, T/C (second compound 0.0316 µM, first compound 0.0316 µM): 101% | viability, T/C (second compound 0.0316 µM, first compound 0.1 µM): 107% | viability, T/C (second compound 0.0316 µM, first compound 0.316 µM): 83% | viability, T/C (second compound 0.0316 µM, first compound 1 µM): 86% | viability, T/C (second compound 0.0316 µM, first compound 3.16 µM): 93.8% | viability, T/C (second compound 0.0316 µM, first compound 10 µM): 57% | viability, T/C (second compound 0.1 µM, first compound 0.0316 µM): 108% | viability, T/C (second compound 0.1 µM, first compound 0.1 µM): 106% | viability, T/C (second compound 0.1 µM, first compound 0.316 µM): 94.6% | viability, T/C (second compound 0.1 µM, first compound 1 µM): 98.5% | viability, T/C (second compound 0.1 µM, first compound 3.16 µM): 98.4% | viability, T/C (second compound 0.1 µM, first compound 10 µM): 52.3% | viability, T/C (second compound 0.316 µM, first compound 0.0316 µM): 97% | viability, T/C (second compound 0.316 µM, first compound 0.1 µM): 104% | viability, T/C (second compound 0.316 µM, first compound 0.316 µM): 103% | viability, T/C (second compound 0.316 µM, first compound 1 µM): 95.7% | viability, T/C (second compound 0.316 µM, first compound 3.16 µM): 61.9% | viability, T/C (second compound 0.316 µM, first compound 10 µM): 52.1% | viability, T/C (second compound 1 µM, first compound 0.0316 µM): 113% | viability, T/C (second compound 1 µM, first compound 0.1 µM): 83.3% | viability, T/C (second compound 1 µM, first compound 0.316 µM): 71.3% | viability, T/C (second compound 1 µM, first compound 1 µM): 93.8% | viability, T/C (second compound 1 µM, first compound 3.16 µM): 69% | viability, T/C (second compound 1 µM, first compound 10 µM): 52.3% | viability, T/C (second compound 3.16 µM, first compound 0.0316 µM): 106% | viability, T/C (second compound 3.16 µM, first compound 0.1 µM): 99% | viability, T/C (second compound 3.16 µM, first compound 0.316 µM): 91.9% | viability, T/C (second compound 3.16 µM, first compound 1 µM): 76.5% | viability, T/C (second compound 3.16 µM, first compound 3.16 µM): 70% | viability, T/C (second compound 3.16 µM, first compound 10 µM): 64.8% | viability, T/C (second compound 10 µM, first compound 0.0316 µM): 110% | viability, T/C (second compound 10 µM, first compound 0.1 µM): 89.5% | viability, T/C (second compound 10 µM, first compound 0.316 µM): 93.2% | viability, T/C (second compound 10 µM, first compound 1 µM): 92.1% | viability, T/C (second compound 10 µM, first compound 3.16 µM): 55.6% | viability, T/C (second compound 10 µM, first compound 10 µM): 58.6%
